Reference: patent US20200281932A1, “FORMULATIONS OF COPANLISIB” (Bayer Pharma Aktiengesellschaft, priority 2017, published 2020)
Where a name gives a salt, the structure may show the parent alone. Read-outs that look alike come from different tables or passages of the source.

Key:
[1] = system: relapsed or refractory indolent B-cell lymphoma; assay: Copanlisib in patients with relapsed or refractory indolent B-cell lymphoma: tumor response; assay type: in vivo, human
Procedure: (§1) Methods: Patients with indolent B-cell non-Hodgkin lymphoma (4 subtypes: follicular (FL), marginal zone (MZL), small lymphocytic (SLL) and lymphoplasmacytoid/Waldenström macroglobulinemia (LPL-WM)) and relapsed after, or refractory to, ≥2 prior lines of treatment were eligible. […] Copanlisib (60 mg, I.V.) was intermittently administered on days 1, 8 and 15 of a 28-day cycle. The primary efficacy endpoint was objective tumor response rate (ORR) as assessed per independent radiologic review (Cheson et al., JCO 20:579, 2007).

[2] = Copanlisib in patients with relapsed or refractory indolent B-cell lymphoma: adverse events; assay type: in vivo, human
Procedure: as §1

[3] = Hydrolytic stability of copanlisib in aqueous solutions (HPLC); assay type: physicochemical; conditions: water, buffer pH 7, 0.1 M hydrochloric acid and 0.1 M sodium hydroxide solution
Procedure: The stationary phase is an XBridge Shield HPLC column (150 mm×3.0 mm, 3.5 μm particle size). For peak separation, gradient elution with a flow rate of 0.5 mL/min is chosen using a sodium dodecyl sulfate ion pair eluent (in water with phosphoric acid) as mobile phase A, and a sodium dodecyl sulfate ion pair eluent (in acetonitrile with 20% water and phosphoric acid) as mobile phase B. The applied gradient profile contains four steps running from 40% to 50% mobile phase B within 5 min, from 50% to 65% mobile phase B within 25 min and from 65% to 100% mobile phase B within another 5 min, followed by a 10 min isocratic phase at 100% mobile phase B. The column temperature is kept at 25° C. and the injection volume is 3.0 μL. […] (flow rate of 0.5 ml/min). […] The impurity was assayed at a wavelength of 210 nm and taken into account to determine the degradation products. The different aqueous solutions (0.05% copanlisib; after addition of 50% 2-propanol, [buffer solution filtered with 0.5 μm membrane filter]) were stored at 25° C. and 70° C. for 24 h and one week. An analytical HPLC-method has been developed to determine assay and organic impurities of copanlisib as well as degradation products.

[4] = full analysis set, 60 mg I.V. on days 1, 8 and 15 of a 28-day cycle

COc1c(OCCCN2CCOCC2)ccc2c1N=C(NC(=O)c1cnc(N)nc1)N1CCN=C21 [copanlisib dihydrochloride, 2-amino-N-[7-methoxy-8-(3-morpholin-4-ylpropoxy)-2,3-dihydroimidazo[1,2-c]quinazolin-5-yl]pyrimidine-5-carboxamide dihydrochloride]
Descriptive term (according to Ph. Eur./USP) (0.1M Hydrochloric acid, 25° C.): freely soluble | Descriptive term (according to Ph. Eur./USP) (Buffer (citrate) pH 3, 25° C.): freely soluble | Descriptive term (according to Ph. Eur./USP) (Buffer (citrate) pH 4, 25° C.): soluble | Descriptive term (according to Ph. Eur./USP) (Buffer (citrate) pH 5, 25° C.): very slightly soluble | Descriptive term (according to Ph. Eur./USP) (Buffer (phosphate) pH 1, 25° C.): freely soluble | Descriptive term (according to Ph. Eur./USP) (Buffer (phosphate) pH 2, 25° C.): freely soluble | Descriptive term (according to Ph. Eur./USP) (Buffer (phosphate) pH 6, 25° C.): practically insoluble | Descriptive term (according to Ph. Eur./USP) (Buffer (phosphate) pH 7, 25° C.): practically insoluble | Descriptive term (according to Ph. Eur./USP) (Water, 25° C.): freely soluble

COc1c(OCCCN2CCOCC2)ccc2c1N=C(NC(=O)c1cnc(N)nc1)N1CCN=C21 [copanlisib, 2-amino-N-[7-methoxy-8-(3-morpholin-4-ylpropoxy)-2,3-dihydroimidazo[1,2-c]quinazolin-5-yl]pyrimidine-5-carboxamide]
Median overall survival ([1]; at the time of primary analysis): had not yet been reached | KM-estimate of median PFS ([1]; full analysis set (range 0-736)): 340 days | overall response rate (ORR) [1, 4]: 59.2% | partial response (PR) [1, 4]: 47.2% | progressive disease [1, 4]: 2.1 % of patients | stable disease [1, 4]: 29.6 % of patients | AE of interest: colitis ([2]; all grade): 0.7% | AE of interest: diarrhea ([2]; all grade): 18% | AE of interest: lung infection ([2]; all grade): 14% | AE of interest: neutropenia ([2]; all grade): 25% | AE of interest: pneumonitis ([2]; all grade): 7% | treatment-related AE: hypertension ([2]; all grade): 29% | treatment-related AE: transient hyperglycemia ([2]; all grade): 49% | Laboratory toxicity: alanine aminotransferase ([2]; all-grade): 23% | Laboratory toxicity: aspartate aminotransferase ([2]; all-grade): 28% | colonic perforations ([2]; full analysis set): No colonic perforations occurred | deaths (number) ([2]; full analysis set): 6 | non-fatal opportunistic infections (number) ([2]; full analysis set): two | AE of interest: colitis ([2]; grade 3+): 0.7% | AE of interest: diarrhea ([2]; grade 3+): 4% | AE of interest: lung infection ([2]; grade 3+): 11% | AE of interest: neutropenia ([2]; grade 3+): 19% | AE of interest: pneumonitis ([2]; grade 3+): 1.4% | treatment-related AE: hypertension ([2]; grade 3+): 23% | treatment-related AE: transient hyperglycemia ([2]; grade 3+): 40% | Laboratory toxicity: alanine aminotransferase ([2]; grade-1): 19% | Laboratory toxicity: aspartate aminotransferase ([2]; grade-1): 25% | deaths attributed to copanlisib (number) ([2]; lung infection, respiratory failure, and a thromboembolic event): 3 | Hydrolytic stability in words [3]: hydrolytic instability
